# Measurements taken from patent US11446282B2, “Methods of treating mixed dyslipidemia and hypertriglycertdemia” (Kowa Company, Ltd., priority 2017, dated 2022).
# System: dyslipidemic patients with or without statin
# Experiment: Example 4 pooled analysis of phase 2 and 3 studies: safety parameters
# Format: in vivo, human
# Method: The present study analyzed data combined from 6 randomized double-blind placebo-controlled studies that were conducted in Japan and continued for 12 weeks unless otherwise noted: a phase 2 study in 224 patients with a history of documented dyslipidemia and plasma TG of 200 mg/dL (2.26 mmol/L) or higher, randomized to placebo, pemafibrate 0.05, 0.1, 0.2, 0.4 mg/day, or fenofibrate 100 mg/day; a phase 3 study in 526 patients with dyslipidemia, high TG levels, and low HDL-C levels, randomized to placebo, pemafibrate 0.1, 0.2, or 0.4 mg/day, or fenofibrate 100 or 200 mg/day; a study in 188 patients with dyslipidemia, randomized to pitavastatin in combination with pemafibrate 0.1, 0.2, or 0.4 mg/day; a 24-week study in 423 patients with dyslipidemia, randomized to pemafibrate 0.2 mg/day (fixed dose) or 0.2 [0.4] mg/day (conditional up-titration) with any statin; a 24-week phase 3 study in 166 patients with type 2 diabetes and hypertriglyceridemia, randomized to placebo or pemafibrate 0.2 or 0.4 mg/day; and a study in 27 patients with hypertriglyceridemia and insulin resistance, randomized to pemafibrate 0.4 mg/day or placebo. All studies were approved by the Institutional Review Board for each study institution and were conducted in accordance with the Declaration of Helsinki and under the guidelines of Good Clinical Practice.
# In this study, we evaluated the efficacy and safety of pemafibrate at doses of 0.1 mg/day, 0.2 mg/day, and 0.4 mg/day, with and without statin. The primary efficacy endpoint was percent change in TG from baseline to 12 weeks. The secondary efficacy endpoints were also assessed from baseline to 12 weeks: percent change in HDL-C, LDL-C, non-HDL-C, TC, RemL-C, Apo AI, Apo AII, Apo B, Apo B48, Apo CII, Apo CIII, Apo CIII/Apo CII, and Apo E; percent change in HPLC findings for CM-C, VLDL-C, cholesterol content in 4 subclasses of LDL (large, medium, small, and very small LDLs), and cholesterol content for 5 subclasses of HDL (very large, large, medium, small, and very small HDLs); and changes in fibrinogen and FGF21. The primary safety endpoints were the incidence of adverse events and adverse drug reactions. Secondary safety endpoints were percentage of values above the upper limit of normal range for AST, ALT, sCr and CK, and change in sCr eGFR, CK, AST, ALT, gamma-glutamyl transferase (γ-GT), alkaline phosphatase (ALP), and total bilirubin.
# Patients with renal dysfunction were defined as those with baseline eGFR<60 mL/min/1.73 m^2. Analysis was stratified by the presence or absence of renal dysfunction in the concomitant statin group, and efficacy and safety of pemafibrate were evaluated. In efficacy and safety evaluations excluding AEs, ADRs, and cutoff values for AST, ALT, sCr, and CK, findings were combined for pemafibrate subgroups receiving doses of 0.1 mg/day, 0.2 mg/day, and 0.4 mg/day.
# For each lipid parameter, gel filtration HPLC was performed at Skylight Biotech, Inc. Other measurements were performed at LSI Medience Corporation. The FAS was used for analyzing efficacy parameters of effects on lipids, fibrinogen, and FGF21. The safety analysis set was used for safety parameters and included all patients who received at least one dose of the study drug. For lipid parameters, fibrinogen, and FGF21, LS means (95% confidence interval) were calculated at Week 12 (LOCF) using analysis of covariance (ANCOVA) with baseline values as the co-variable within each category. For safety parameters, LS means (95% confidence interval) were calculated at Week 12 using ANCOVA with baseline values as the co-variable within each category. SAS version 9.2 was used for analyses.
# [1] = Without Statin, 0.1 mg/day, n=82
# [2] = Without Statin, 0.2 mg/day, n=202
# [3] = Without Statin, 0.4 mg/day, n=173
# [4] = Without Statin, 0.4 mg/day, n=174
structure (smiles),measurement,setting,value
"CC[C@@H](Oc1cccc(CN(CCCOc2ccc(OC)cc2)c2nc3ccccc3o2)c1)C(=O)O [Pemafibrate, (2R)-2-[3-({1,3-benzoxazol-2-yl[3-(4-methoxyphenoxy)propyl]amino}methyl)phenoxy]butanoic acid]","ADE Leading to withdrawal, number of patients","With Statin, 0.1 mg/day, n=45",1
same,"ADE Leading to withdrawal, percentage of patients","With Statin, 0.1 mg/day, n=45",(2.2) percentage
same,"ADE Serious, number of patients","With Statin, 0.1 mg/day, n=45",0
same,"ADE Total, number of patients","With Statin, 0.1 mg/day, n=45",3
same,"ADE Total, percentage of patients","With Statin, 0.1 mg/day, n=45",(6.7) percentage
same,"AE Leading to withdrawal, number of patients","With Statin, 0.1 mg/day, n=45",2
same,"AE Leading to withdrawal, percentage of patients","With Statin, 0.1 mg/day, n=45",(4.4) percentage
same,"AE Serious, number of patients","With Statin, 0.1 mg/day, n=45",2
same,"AE Serious, percentage of patients","With Statin, 0.1 mg/day, n=45",(4.4) percentage
same,"AE Total, number of patients","With Statin, 0.1 mg/day, n=45",29
same,"AE Total, percentage of patients","With Statin, 0.1 mg/day, n=45",(64.4) percentage
same,"ALT ≥ ULN × 3, number of patients","With Statin, 0.1 mg/day, n=45",1
same,"ALT ≥ ULN × 3, percentage of patients","With Statin, 0.1 mg/day, n=45",(2.2) percentage
same,"AST ≥ ULN × 3, number of patients","With Statin, 0.1 mg/day, n=45",0
same,"CK ≥ 2.5 and < ULN × 5, number of patients","With Statin, 0.1 mg/day, n=45",2
same,"CK ≥ 2.5 and < ULN × 5, percentage of patients","With Statin, 0.1 mg/day, n=45",(4.4) percentage
same,"CK ≥ 5 and < ULN × 10, number of patients","With Statin, 0.1 mg/day, n=45",0
same,"CK ≥ ULN × 10, number of patients","With Statin, 0.1 mg/day, n=45",0
same,"sCr ≥ ULN, number of patients","With Statin, 0.1 mg/day, n=45",8
same,"sCr ≥ ULN, percentage of patients","With Statin, 0.1 mg/day, n=45",(17.8) percentage
same,"ADE Leading to withdrawal, number of patients","With Statin, 0.2 mg/day, n=382",11
same,"ADE Leading to withdrawal, percentage of patients","With Statin, 0.2 mg/day, n=382",(2.9) percentage
same,"ADE Serious, number of patients","With Statin, 0.2 mg/day, n=382",2
same,"ADE Serious, percentage of patients","With Statin, 0.2 mg/day, n=382",(0.5) percentage
same,"ADE Total, number of patients","With Statin, 0.2 mg/day, n=382",36
same,"ADE Total, percentage of patients","With Statin, 0.2 mg/day, n=382",(9.4) percentage
same,"AE Leading to withdrawal, number of patients","With Statin, 0.2 mg/day, n=382",12
same,"AE Leading to withdrawal, percentage of patients","With Statin, 0.2 mg/day, n=382",(3.1) percentage
same,"AE Serious, number of patients","With Statin, 0.2 mg/day, n=382",6
same,"AE Serious, percentage of patients","With Statin, 0.2 mg/day, n=382",(1.6) percentage
same,"AE Total, number of patients","With Statin, 0.2 mg/day, n=382",164
same,"AE Total, percentage of patients","With Statin, 0.2 mg/day, n=382",(42.9) percentage
same,"ALT ≥ ULN × 3, number of patients","With Statin, 0.2 mg/day, n=382",0
same,"AST ≥ ULN × 3, number of patients","With Statin, 0.2 mg/day, n=382",1
same,"AST ≥ ULN × 3, percentage of patients","With Statin, 0.2 mg/day, n=382",(0.3) percentage
same,"CK ≥ 2.5 and < ULN × 5, number of patients","With Statin, 0.2 mg/day, n=382",7
same,"CK ≥ 2.5 and < ULN × 5, percentage of patients","With Statin, 0.2 mg/day, n=382",(1.6) percentage
same,"CK ≥ 5 and < ULN × 10, number of patients","With Statin, 0.2 mg/day, n=382",3
same,"CK ≥ 5 and < ULN × 10, percentage of patients","With Statin, 0.2 mg/day, n=382",(0.6) percentage
same,"CK ≥ ULN × 10, number of patients","With Statin, 0.2 mg/day, n=382",1
same,"CK ≥ ULN × 10, percentage of patients","With Statin, 0.2 mg/day, n=382",(0.3) percentage
same,"sCr ≥ ULN, number of patients","With Statin, 0.2 mg/day, n=382",61
same,"sCr ≥ ULN, percentage of patients","With Statin, 0.2 mg/day, n=382",(16.0) percentage
same,"ADE Leading to withdrawal, number of patients","With Statin, 0.4 mg/day, n=72",0
same,"ADE Serious, number of patients","With Statin, 0.4 mg/day, n=72",0
same,"ADE Total, number of patients","With Statin, 0.4 mg/day, n=72",2
same,"ADE Total, percentage of patients","With Statin, 0.4 mg/day, n=72",(2.8) percentage
same,"AE Leading to withdrawal, number of patients","With Statin, 0.4 mg/day, n=72",0
same,"AE Serious, number of patients","With Statin, 0.4 mg/day, n=72",0
same,"AE Total, number of patients","With Statin, 0.4 mg/day, n=72",34
same,"AE Total, percentage of patients","With Statin, 0.4 mg/day, n=72",(47.2) percentage
same,"ALT ≥ ULN × 3, number of patients","With Statin, 0.4 mg/day, n=72",1
same,"ALT ≥ ULN × 3, percentage of patients","With Statin, 0.4 mg/day, n=72",(1.4) percentage
same,"AST ≥ ULN × 3, number of patients","With Statin, 0.4 mg/day, n=72",1
same,"AST ≥ ULN × 3, percentage of patients","With Statin, 0.4 mg/day, n=72",(1.4) percentage
same,"CK ≥ 2.5 and < ULN × 5, number of patients","With Statin, 0.4 mg/day, n=72",2
same,"CK ≥ 2.5 and < ULN × 5, percentage of patients","With Statin, 0.4 mg/day, n=72",(2.8) percentage
same,"CK ≥ 5 and < ULN × 10, number of patients","With Statin, 0.4 mg/day, n=72",0
same,"CK ≥ ULN × 10, number of patients","With Statin, 0.4 mg/day, n=72",0
same,"sCr ≥ ULN, number of patients","With Statin, 0.4 mg/day, n=72",11
same,"sCr ≥ ULN, percentage of patients","With Statin, 0.4 mg/day, n=72",(15.3) percentage
same,"ADE Leading to withdrawal, number of patients",[1],1
same,"ADE Leading to withdrawal, percentage of patients",[1],(1.2) percentage
same,"ADE Serious, number of patients",[1],0
same,"ADE Total, number of patients",[1],3
same,"ADE Total, percentage of patients",[1],(3.7) percentage
same,"AE Leading to withdrawal, number of patients",[1],2
same,"AE Leading to withdrawal, percentage of patients",[1],(2.4) percentage
same,"AE Serious, number of patients",[1],1
same,"AE Serious, percentage of patients",[1],(1.2) percentage
same,"AE Total, number of patients",[1],27
same,"AE Total, percentage of patients",[1],(32.9) percentage
same,"ALT ≥ ULN × 3, number of patients",[1],0
same,"AST ≥ ULN × 3, number of patients",[1],0
same,"CK ≥ 2.5 and < ULN × 5, number of patients",[1],2
same,"CK ≥ 2.5 and < ULN × 5, percentage of patients",[1],(2.4) percentage
same,"CK ≥ 5 and < ULN × 10, number of patients",[1],0
same,"CK ≥ ULN × 10, number of patients",[1],0
same,"sCr ≥ ULN, number of patients",[1],15
same,"sCr ≥ ULN, percentage of patients",[1],(18.3) percentage
same,"ADE Leading to withdrawal, number of patients",[2],2
same,"ADE Leading to withdrawal, percentage of patients",[2],(1.0) percentage
same,"ADE Serious, number of patients",[2],1
same,"ADE Serious, percentage of patients",[2],(0.5) percentage
same,"ADE Total, number of patients",[2],14
same,"ADE Total, percentage of patients",[2],(6.9) percentage
same,"AE Leading to withdrawal, number of patients",[2],3
same,"AE Leading to withdrawal, percentage of patients",[2],(1.5) percentage
same,"AE Serious, number of patients",[2],4
same,"AE Serious, percentage of patients",[2],(2.0) percentage
same,"AE Total, number of patients",[2],78
same,"AE Total, percentage of patients",[2],(38.6) percentage
same,"ALT ≥ ULN × 3, number of patients",[2],0
same,"AST ≥ ULN × 3, number of patients",[2],0
same,"CK ≥ 2.5 and < ULN × 5, number of patients",[2],3
same,"CK ≥ 2.5 and < ULN × 5, percentage of patients",[2],(1.5) percentage
same,"CK ≥ 5 and < ULN × 10, number of patients",[2],0
same,"CK ≥ ULN × 10, number of patients",[2],0
same,"sCr ≥ ULN, number of patients",[2],34
same,"sCr ≥ ULN, percentage of patients",[2],(16.8) percentage
same,"ALT ≥ ULN × 3, number of patients",[3],0
same,"AST ≥ ULN × 3, number of patients",[3],1
same,"AST ≥ ULN × 3, percentage of patients",[3],(0.6) percentage
same,"CK ≥ 2.5 and < ULN × 5, number of patients",[3],0
same,"CK ≥ 5 and < ULN × 10, number of patients",[3],1
same,"CK ≥ 5 and < ULN × 10, percentage of patients",[3],(0.6) percentage
same,"CK ≥ ULN × 10, number of patients",[3],1
same,"CK ≥ ULN × 10, percentage of patients",[3],(0.6) percentage
same,"sCr ≥ ULN, number of patients",[3],22
same,"sCr ≥ ULN, percentage of patients",[3],(12.7) percentage
same,"ADE Leading to withdrawal, number of patients",[4],3
same,"ADE Leading to withdrawal, percentage of patients",[4],(1.7) percentage
same,"ADE Serious, number of patients",[4],1
same,"ADE Serious, percentage of patients",[4],(0.6) percentage
same,"ADE Total, number of patients",[4],16
same,"ADE Total, percentage of patients",[4],(9.2) percentage
same,"AE Leading to withdrawal, number of patients",[4],6
same,"AE Leading to withdrawal, percentage of patients",[4],(3.4) percentage
same,"AE Serious, number of patients",[4],2
same,"AE Serious, percentage of patients",[4],(1.1) percentage
same,"AE Total, number of patients",[4],60
same,"AE Total, percentage of patients",[4],(34.5) percentage
